Laboratory results from patent US20260285847A1, “SYMMETRIC AMINOINDOLE-LINKED TRIAZINE FOR A DUAL EFFECT ON ALPHA-SYNUCLEIN AND TAU ISOFORM 2N4R FIBRILLIZATION” (Purdue Research Foundation, priority 2023, published 2026).
“Also recorded” adds a separate entry of the source.

Legend:
alpha-synuclein (α-syn) = molecular target: T1, alpha-synuclein (α-syn) (Homo sapiens, UniProt P37840); test: Thioflavin T (ThT) fluorescence assay of α-syn fibril formation; assay type: biochemical; settings: compound 100 μM
T1 construct: purchased rPeptide
Procedure: Thioflavin fluorescence assays. Thioflavin fluorescence assays were used to monitor fibril formation of recombinant α-syn, tau isoform 2N4R, treated with control DMSO and different compounds. Kinetics of α-syn fibrillization were performed using thioflavin T (ThT) as published previously.^32′ ^37 The fluorescence emission experiments were performed with the excitation and emission wavelengths set at 440 and 485 nm, respectively, with a Synergy HT multi-mode microplate reader (BioTek, Winooski, VT). Samples were measured in three replicates and the experiments were repeated three times using at least two different stock solutions. For each time point, arbitrary units of fluorescence were calculated from the mean values normalized against the maximum value in each completed assay. All results contained in FIG. 1 were presented as mean±SEM.
FIG. 1. Chemical structure, physicochemical descriptors, and the effect of compounds on alpha-synuclein (α-syn) aggregation measured as fluorescence intensity using ThT assay. TPSA, Log P, and Log D were obtained with SwissADME. BBB and pKa were obtained from the Blood-Brain Barrier Prediction Server (https://www.cbligand.org/BBB/) and Chemaxon, respectively. CNS MPO scores were assessed as published previously, The ThT (%) represent the maximum fluorescence intensity obtained at the plateau phase of the kinetics of fibrillization using 6.25 μM of α-syn. Compounds were tested at 100 μM (molar ratio 1:16). BBB, blood-brain barrier; C log D, calculated distribution coefficient at 7.4; C log P, calculated partition coefficient; CNS MPO, Central Nervous System Multi Parameter Optimization; HBA, Hydrogen Bond Acceptor; HBD, Hydrogen Bond Donor; LR5, Lipinski's rule of five; pKa, negative log of acid dissociation constant; ThT, Thioflavin T; TPSA, Topological polar surface area.

[1] = Half-life and brain penetration in mice; assay type: in vivo; settings: CD1 mice, 1 mg/kg
Description: The concentration ration plasma:brain is near to one which is adequate.

p-tau isoform 1N4R = molecular target: T2, p-tau isoform 1N4R (Homo sapiens, UniProt P10636); assay type: biochemical; settings: protein 60 μM, compound 600 μM (1:10), 24 hours at 37° C.
T2 construct: made in house
T2 sequence (P10636 1-412 isoform P10636-7): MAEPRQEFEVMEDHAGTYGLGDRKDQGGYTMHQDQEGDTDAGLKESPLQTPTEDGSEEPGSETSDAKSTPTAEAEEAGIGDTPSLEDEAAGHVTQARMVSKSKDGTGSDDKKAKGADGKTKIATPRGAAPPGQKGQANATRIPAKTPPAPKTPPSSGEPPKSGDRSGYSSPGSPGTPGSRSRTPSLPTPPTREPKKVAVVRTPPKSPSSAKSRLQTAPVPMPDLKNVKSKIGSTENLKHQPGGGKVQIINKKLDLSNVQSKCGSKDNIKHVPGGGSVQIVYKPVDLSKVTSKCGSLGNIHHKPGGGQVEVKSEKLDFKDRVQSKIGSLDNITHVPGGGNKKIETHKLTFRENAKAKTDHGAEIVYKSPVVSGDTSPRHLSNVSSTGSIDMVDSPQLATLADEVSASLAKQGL
Procedure: To confirm the general anti-fibrillar effect of compound 10, transmission electron microscopy (TEM) was used as an orthogonal assay. After incubating recombinant proteins (at 60 μM) with 600 μM compound 10 for 24 hours at 37° C., TEM was utilized to detect fibril formation.^32 A volume of 10 μL was applied on a 400-mesh Formvar-carbon-coated copper grid (Electron Microscopy Sciences, Hatfield, PA). The grids were incubated for 1 minute and washed three times with distilled water. They were carefully air-dried and incubated for 1 minute in a fresh solution of 1% uranyl acetate. Samples were air-dried and observed using a transmission microscope. Visualization of the grids was performed with transmission electron microscopy (JEOL 1400 Flash, Japan). Acquisition of pictures was performed with the following settings: accelerating voltage of 100 kV and magnification of 40k.

α-syn = molecular target: T3, α-syn (Homo sapiens, UniProt P37840); test: PICUP cross-linking assay of α-syn oligomer formation; assay type: biochemical
T3 construct: purchased rPeptide
Procedure: PICUP is a technique in which oligomer formation is induced by cross-linking. To induce oligomerization by cross-linking, α-syn (from Rpeptide, LLC) and tau isoform 2N4R were diluted in 10 mM phosphate buffer (pH 7.4) to reach a final concentration of 10 μM. Different compounds were added to the protein solution at a final concentration of 50 μM, resulting in a molar ratio of 1:5. To confirm the gradual effect of compounds on the inhibition of α-syn oligomerization, compounds were tested at final concentration of 3.125, 6.25, 12.5, 25, and 50 μM. The controls consisted of samples without light exposition, without Ru(bpy) or ammonium persulfate, and without compound (i.e., 0.125% DMSO). The cross-linking reaction was initiated by the addition of 2 μL of Ru(bpy) (300 μM final concentration) and 2 μL ammonium persulfate (6 mM final concentration).^32 Samples were irradiated immediately. Light exposure was of a 1 second duration for α-syn and a 3 second duration for tau isoform 2N4R, with a 53 W (120 V) incandescent lamp installed in a homemade dark-box. Each tube contained a final volume of 20 μL. After irradiation, 8.3 μL of Laemmli loading buffer containing 15% 0-mercaptoethanol was immediately added to the solution, followed by incubation at 95° C. for 10 min. The cross-linked samples were separated on a 16% SDS-PAGE gel and visualized by Coomassie blue staining.

[2] = system: Aβ-plaques isolated from AD brains; test: Ex vivo disaggregation of Aβ-plaques (TEM); set-up: species or system human; settings: compound 50 μM, 120 hours at 37° C., vs 1.5% DMSO
Description: Amyloid-β plaques were purified from postmortem human AD brains obtained from patients diagnosed with advanced Alzheimer's (Braak stage V or VI) (Tissue Biobank at Case Western Reserve University-Cleveland Clinic) using ultracentrifugation with a sucrose gradient and cell sorting, as previously published.^38-39 Purified amyloid-β plaques were examined with polarized and fluorescence microscopy (Congo Red and Thioflavin-S staining) and scanning electron microscopy. Each aliquot of amyloid-β plaques was solubilized with 60 μL of 10 mM PBS buffer (pH 7.4). One extraction consisted of 0.28 mg/ml of protein, as measured with nanodrop (A260/280 nm). A volume of 20 μL of extraction was incubated with 1.5% DMSO (control) or compound 10 (50 μM) for 120 hours at 37° C. prior to visualization by transmission electron microscopy.
The protein quantification of the plaques isolated from AD brains were measured with nanodrop. […] Compound 10 was tested at 50 μM based on the protein levels and results obtained with PICUP experiments (FIG. 7). AP-plaque samples were incubated with 1.5% DMSO (control) or compound 10 (50 μM) in 10 mM PBS buffer (pH 7.4) for 120 hours at 37° C. prior to visualization by transmission electron microscopy. During the visualization of the grids, several paired helical filaments were observed.

## c1cc(Nc2ncnc(Nc3cccc4[nH]ccc34)n2)c2cc[nH]c2c1 [Compound 10, N2,N4-bis(1H-indol-4-yl)-1,3,5-triazine-2,4-diamine]
alpha-synuclein (α-syn); α-syn 6 μM
  lag time of α-syn fibril elongation: delayed slightly the lag time
alpha-synuclein (α-syn); α-syn 6.25 μM (molar ratio 1:16), compared with DMSO control, mean±SEM, read-out: ThT fluorescence intensity (FI), maximum at the plateau phase of α-syn fibrillization
  activity at 100 µM: 13.5 ± 1.7%
[1]
  concentration ratio plasma:brain: near to one
  crossing of the blood brain barrier: crossed the blood brain barrier
  half-life: short half-life
p-tau isoform 1N4R
  p-tau isoform 1N4R fibril ultrastructure (TEM): less fibrils resulted from this treatment
α-syn; compound 50 μM, high molecular weight oligomers around 50 kDa
  α-syn oligomer formation (PICUP, in words): inhibited both α-syn and tau oligomer formation
α-syn; compound 3.125 to 50 μM
  α-syn oligomerization at different concentrations (PICUP): effective in reducing oligomerization of α-syn and tau isoform 2N4R in a dose-dependent manner
[2]
  disaggregation of Aβ-plaques (TEM, in words): smaller AP-plaques; also recorded: disaggregated human Aβ plaques and NFTs
